The record followed here is patent US20240116990A1, “Compositions and Methods of Treatment Using CRRL 191” (Mayo Foundation for Medical Education and Research, priority 2022, published 2024).

Bridge positions count the residues as written; N and C are the ends.

The assay deals with Spontaneously Hypertensive Rats (SHR). Put plainly: Blood pressure in spontaneously hypertensive rats during infusion and washout. Conditions: 100 pmol/kg and 300 pmol/kg doses. It counts as in vivo, rat. As for the experimental part: All rat experiments are conducted following the Animal Welfare Act and the protocol is approved by the Mayo Clinic Institutional Animal Care and Use Committee (IACUC). […] Rats are included only if they are deemed healthy by the Institutional Veterinarian Department. Investigators who conduct the in vivo study are not blinded to treatments, but biochemical analysis is performed by a different investigator who is blinded to treatment.
On the day of the experiment, SHR rats are anesthetized with inactin (120 mg/kg, intraperitoneal injection, Sigma, St. Louis, MO). Rats are then kept on a heating pad at 38° C. to maintain a normal body temperature for the entire study. Vascular and bladder cannulation procedures are conducted. Briefly, a polyethylene-50 (PE-50) tube catheter is placed into one jugular vein for peptide infusion and another PE-50 tube is placed into the carotid artery for blood pressure (BP) monitoring (Sonometrics, London, Ontario, Canada) and blood sampling. After instrumentation, a 15-minute equilibrium period follows, and a 30-minute pre-infusion period is performed to collect baseline urine samples.
Four blood samples are collected to determine circulating cGMP levels: at baseline, before the end of drug infusion, at the middle of the washout clearance period, and before the end of the washout clearance period. Any blood loss in the rats is replaced with an equal volume of saline. BP is monitored and recorded every 15 minutes beginning after the initiation of peptide infusion. All collected blood are stored at −80° C. until assayed.

Regarding “H-RALLTAPRSLRRSSCFGHKIDRINHVSNLGCNSFRYRITAREDKQGWA-OH (disulfide 15-31) [CRRL 191]”, the “lowering systolic blood pressure compared to ANP” value (iv infusion, FIG. 8A) is “more effective at lowering”. The “lowering diastolic blood pressure compared to ANP” value (iv infusion, FIG. 8B) is given as “more effective at lowering”. Under “iv infusion, FIG. 8C”, the “lowering mean arterial blood pressure compared to ANP” value is recorded as “more effective at lowering”. For the same substance, the “duration of blood pressure effect after peptide administration compared to ANP” value (washout) was “more sustained effect over time”.
